# Test results published in patent US8329913B2, “Carbazole derivative, solvate thereof, or pharmaceutically acceptable salt thereof” (Zeria Pharmaceutical Co., Ltd., priority 2004, dated 2012).
# Biological target: T1, human PPARγ (Homo sapiens, UniProt P37231)
# T1 construct: 1.6 kb of fragment of the prepared plasmid pGEMT-hPPARg2 including human PPARγ gene; expressed in transfected cells; host or cells: CV-1 cells, transient transfection with pCI-hPPARg2, pCI-hRXRa and the reporter pGL3-PPRE3-TK
# T1 sequence (P37231 1-505): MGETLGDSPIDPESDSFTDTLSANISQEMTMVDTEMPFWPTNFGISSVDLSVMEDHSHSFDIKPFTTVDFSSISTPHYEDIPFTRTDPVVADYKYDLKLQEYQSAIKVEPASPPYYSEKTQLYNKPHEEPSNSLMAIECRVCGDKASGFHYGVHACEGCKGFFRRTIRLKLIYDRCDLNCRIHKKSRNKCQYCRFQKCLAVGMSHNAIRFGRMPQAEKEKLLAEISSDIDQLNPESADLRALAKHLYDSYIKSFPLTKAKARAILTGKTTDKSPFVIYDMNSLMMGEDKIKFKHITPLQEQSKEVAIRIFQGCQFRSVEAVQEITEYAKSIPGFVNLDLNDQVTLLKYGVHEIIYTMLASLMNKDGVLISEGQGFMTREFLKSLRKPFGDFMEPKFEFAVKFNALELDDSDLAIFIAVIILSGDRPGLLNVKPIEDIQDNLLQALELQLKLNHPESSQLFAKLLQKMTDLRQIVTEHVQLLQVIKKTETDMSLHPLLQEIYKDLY
# T1 sequence (P19793 1-462 partner): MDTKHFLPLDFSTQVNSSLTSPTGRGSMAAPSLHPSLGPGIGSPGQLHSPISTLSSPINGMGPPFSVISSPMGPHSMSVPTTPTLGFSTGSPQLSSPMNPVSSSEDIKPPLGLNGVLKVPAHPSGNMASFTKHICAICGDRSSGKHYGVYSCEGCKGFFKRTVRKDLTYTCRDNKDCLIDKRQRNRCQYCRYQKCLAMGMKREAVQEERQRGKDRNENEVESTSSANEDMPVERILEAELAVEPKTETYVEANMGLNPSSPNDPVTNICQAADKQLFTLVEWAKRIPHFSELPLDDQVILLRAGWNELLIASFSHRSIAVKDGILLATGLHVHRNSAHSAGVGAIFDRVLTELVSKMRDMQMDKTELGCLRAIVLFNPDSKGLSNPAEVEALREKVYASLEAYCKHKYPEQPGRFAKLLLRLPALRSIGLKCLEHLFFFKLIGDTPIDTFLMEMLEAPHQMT
# Experiment: Human PPARγ antagonist assay (luciferase reporter in transfected CV-1 cells)
# Format: cell-based
# Conditions: CV-1 cells expressing human PPARγ and RXRα with reporter plasmid; pioglitazone 1 μM as stimulant; 24 hours; read-out: Human PPARγ antagonist activities, Inhibition IC50
# Experimental: CV-1 cells (96 well plate), where human PPARγ and RXRα has expressed in the transient transfection of reporter plasmid (see reference 5a) were washed once with PBS (100 μL/well), and then supplemented with 100 μL/well […], as well as pioglitazone (not limited to pioglitazone shown as an example, but may be any PPARγ agonist) at a final concentration of 1 μM as a stimulant were added, and incubated in a 5% CO2 incubator at 37° C. for 24 hours. After removing the medium, the CV-1 cells were washed once with PBS (100 μL/well), and supplemented with 60 μL/well of 1× Passive Lysis Buffer (manufactured by Promega Corporation). The CV-1 cells were incubated at room temperature for 30 minutes, stirred, and then by using Dual-Luciferase Reporter Assay System (manufactured by Promega Corporation), luciferase activities of firefly and renilla were measured using 1420 ARVO Multilabel Counter (manufactured by Wallac Oy). Also, the same experiments as that described above were respectively carried out for the cases where only the above-mentioned stimulants (100 nM, 1 μM, 10 μM) were used, where only the above-mentioned test compounds were used, or where neither was used (nonsupplemented), and luciferase activities of firefly and renilla were measured. Values corrected by dividing the firefly luciferase activities by the renilla luciferase activities were calculated as specific activities and used for evaluations.
# Human PPARγ2 antagonist activities of the test compounds were evaluated by using a percentage (inhibition) where the specific activity in case only […] was added is regarded as 0% and the specific activity in case the test compound and the stimulant were not added is regarded as 100%. Moreover, the concentration of the test compound indicating the inhibition rate of 50% was calculated as the IC50 value. Also, human PPARγ2 agonist activities of the test compounds were evaluated by using a percentage (activity) where the specific activity when nonsupplemented is regarded as 0% and the specific activity in case only 10 μM stimulant was added is regarded as 100%, from the specific activity in case only the test compound is used.
# CV-1 cells were cultured in DMEM medium (manufactured by Invitrogen Corporation) including 10% fetal bovine serum (manufactured by Dainippon Pharmaceutical Co., Ltd.) in 225T-Flask (manufactured by Corning Costar). The cells were detached by 0.5 g/L trypsin-0.2 g/L EDTA (ethylene diamine tetra-acetic acid) (manufactured by Invitrogen Corporation), and then suspended in the DMEM medium including 10% fetal bovine serum to a cell concentration of 2×10^5 cells/mL. Thereafter, the cells were seeded into 96 well plate at 2×10^4 cells/0.1 mL/well, incubated in the 5% CO2 incubator at 37° C. overnight, and then the plasmids prepared by the above-mentioned reference 1a, reference 3a, and reference 4a were transfected into cells by using a lipofectamine reagent (manufactured by Invitrogen Corporation) according to the attached manual.
# Namely, after CV-1 cells were cultured overnight, the cells were washed with PBS (100 μL/well). Thereafter the cells were incubated for 5 hours at 37° C./5% CO2 in the MEM medium (manufactured by Invitrogen Corporation) including 430 ng/mL of human PPARγ expression plasmid (pCI-hPPARg2) prepared by the reference 1a, 430 ng/mL of human RXRα expression plasmid (pCI-hRXRa) prepared by the reference 3a, and 140 ng/mL of the reporter plasmid (pGL3-PPRE3-TK) prepared by the reference 4a, 10 ng/mL of phRL-TK vector (manufactured by Promega Corporation) and 2 μL/mL of lipofectamine.
row,IC50 [µM],Compound
1,0.471,"COc1cc(Cn2c3ccccc3c3c(OC(C(=O)O)c4ccccc4)cccc32)ccc1OCc1nc(-c2ccccc2)oc1C (single isomer, unassigned) [Example 50, sodium (+)-2-{9-[3-methoxy-4-((5-methyl-2-phenyl-oxazole-4-yl)methoxy)-benzyl]-9H-carbazole-4-yloxy}-2-phenylacetate]"
2,0.462,"COc1cc(Cn2c3ccccc3c3c(O[C@@H](C(=O)O)C(C)C)cccc32)ccc1OCc1nc(-c2ccccc2)oc1C [Example 44, sodium (R)-2-{9-[3-methoxy-4-((5-methyl-2-phenyl-oxazole-4-yl)methoxy)-benzyl]-9H-carbazole-4-yloxy}-3-methyl-butyrate]"
3,0.617,"COc1cc(Cn2c3ccccc3c3c(O[C@@H](C)C(=O)O)cccc32)ccc1OCc1nc(-c2ccccc2)oc1C [Example 39, sodium (S)-2-{9-[3-methoxy-4-((5-methyl-2-phenyl-oxazole-4-yl)methoxy)-benzyl]-9H-carbazole-4-yloxy}propionate]"
4,0.4,"COc1cc(Cn2c3ccccc3c3c(OC(C(=O)O)C(C)C)cccc32)ccc1OCc1nc(-c2ccccc2)oc1C (racemic) [Example 10, (±)-2-{9-[3-methoxy-4-((5-methyl-2-phenyl-oxazole-4-yl)methoxy)-benzyl]-9H-carbazole-4-yloxy}-3-methyl-butyric acid]"
5,1.05,"COc1cc(Cn2c3ccccc3c3c(Oc4ccc(C(=O)O)cc4)cccc32)ccc1OCc1nc(-c2ccccc2)oc1C [Example 49, sodium 4-{9-[3-methoxy-4-((5-methyl-2-phenyloxazole-4-yl)methoxy)-benzyl]-9H-carbazole-4-yloxy}benzoate]"
6,5.06,"COc1cc(Cn2c3ccccc3c3c(OCCCCCC(=O)O)cccc32)ccc1OCc1nc(-c2ccccc2)oc1C [Example 21, 6-{9-[3-methoxy-4-((5-methyl-2-phenyl-oxazole-4-yl)methoxy)-benzyl]-9H-carbazole-4-yloxy}caproic acid]"
7,0.32,"CCCCC(Oc1cccc2c1c1ccccc1n2Cc1ccc(OCc2nc(-c3ccccc3)oc2C)c(OC)c1)C(=O)O (racemic) [Example 17, (±)-2-{9-[3-methoxy-4-((5-methyl-2-phenyl-oxazole-4-yl)methoxy)-benzyl]-9H-carbazole-4-yloxy}caproic acid]"
8,0.992,"COc1cc(Cn2c3ccccc3c3c(OCc4ccc(C(=O)O)cc4)cccc32)ccc1OCc1nc(-c2ccccc2)oc1C [Example 46, sodium 4-((9-(4-((5-methyl-2-phenyloxazole-4-yl)methoxy)-3-methoxybenzyl)-9H-carbazole-5-yloxy)methyl)benzoate]"
9,0.829,"CCCCCC(Oc1cccc2c1c1ccccc1n2Cc1ccc(OCc2nc(-c3ccccc3)oc2C)c(OC)c1)C(=O)O (racemic) [Example 18, (±)-2-{9-[3-methoxy-4-((5-methyl-2-phenyl-oxazole-4-yl)methoxy)-benzyl]-9H-carbazole-4-yloxy}heptane acid]"
